Measured values published in patent publication US20230201232A1, “COMPOSITION FOR AMELIORATION, PREVENTION OR TREATMENT OF HAIR LOSS, COMPRISING CATECHIN 7-O-beta-D-APIOFURANOSIDE AS ACTIVE INGREDIENT” (ANPOLY INC., priority 2020, published 2023).

Columns and labels:
Bcl-2 = test: Western blot, Bcl-2 protein expression in H2O2-treated dermal papilla cells; assay type: cell-based, human; details: HFDPC, 600 µM H2O2, compound at each concentration; FIG. 4
Procedure: (§1) HFDPC cells were inoculated in a papilla cell-specific medium (PromoCell, Heidelberg, Germany or Cell biologics Inc, IL, USA) recommended by the supplier, subcultured for 24 to 48 hours at 37° C. and 5% CO2 conditions, and used for experiments.
(§2) After treating the dermal papilla cells (HFDPC) with H2O2 and the sample, the cells were collected at each time zone and the cells were lysed in a cell lysis buffer (RIPA buffer). After the sample was centrifuged at 13,000 g for about 10 to 15 minutes, only the supernatant was taken. The protein concentration of the supernatant was measured by a BCA protein assay kit (Bio-Rad, CA, USA) and then heated at 95° C. for 10 minutes. The prepared sample was electrophoresed on SDS-polyacrylamide gel, transferred to a polyvinylidenedifluoride membrane (PVDF, Bio-rad, CA, USA), blocked with 5% BSA, and reacted with the indicated specific antibody. Then, HRP-conjugated secondary antibody (Santacruz, CA, USA) was reacted with the sample and detected by ECL system (Bio-Rad, MO, USA). As primary antibodies against Bax-1, Bcl-2, PARP-1, and β-actin, Santacruz antibodies (CA, USA) were used.

[1] = tested on: production of dihydrotestosterone (DHT) from testosterone in dermal papilla cells (HFDPC); test: Dihydrotestosterone production inhibitory activity assay (DHT ELISA); assay type: cell-based, human; details: HFDPC treated with 20 nM testosterone; compound at 125 µg/ml, 150 µg/ml, 1100 µg/ml; FIG. 3
Procedure: as §1
Quantitative analysis of dihydrotestosterone (DHT) was performed by immunochemical quantitative analysis using an ELISA kit. A DHT assay ELISA kit was purchased from Alpco (NH, USA) and used. The experiment using the kit was performed according to the instructions provided by the manufacturer, and the result was derived by converting the amount of antigen (pg/µg) per volume (ml) of cell lysate into a concentration unit.

TGF-β1 = test: ELISA, TGF-β1 expression in H2O2-treated dermal papilla cells; assay type: cell-based, human; details: FIG. 5B
Procedure: as §1
(§3) An ELISA kit was purchased and used to perform immunochemical quantitative analysis related to hair growth promotion and hair loss inhibition. TGF-β and IGF-1 kits were purchased from R&D systems (CA, USA) and used. The test was conducted using each kit according to the supplier’s manual, and the result was derived by converting the amount (pg or µg) of antigen per volume (ml) of cell lysate into a concentration unit.

Bax = test: Western blot, Bax protein expression in H2O2-treated dermal papilla cells; assay type: cell-based, human; details: HFDPC, 600 µM H2O2, pretreatment with compound at each concentration; FIG. 4
Procedure: as §1, §2

IGF-1 = test: ELISA, IGF-1 expression in H2O2-treated dermal papilla cells; assay type: cell-based, human; details: FIG. 5A
Procedure: as §1, §3

PARP-1 = test: Western blot, PARP-1 protein expression in H2O2-treated dermal papilla cells; assay type: cell-based, human; details: HFDPC, 600 µM H2O2, compound at each concentration; FIG. 4
Procedure: as §1, §2

[2] = tested on: dermal papilla cells (HFDPC); details: H2O2 at 600 µM

Row | Compound | expression of Bcl-2 (Bcl-2) | inhibition of DHT production [1] | expression of TGF-β1 (TGF-β1) | expression of Bax (Bax) | expression of IGF-1 (IGF-1) | protein expression level of PARP-1 (PARP-1) | apoptosis [2]
1 | OC[C@@]1(O)COC(Oc2cc(O)c3c(c2)O[C@H](c2ccc(O)c(O)c2)[C@@H](O)C3)[C@@H]1O (stereo in doubt) [catechin 7-O-β-D-apiofuranoside] | significantly increased the expression of Bcl-2 in a concentration-dependent manner | effect of inhibiting DHT production was statistically significant in a concentration-dependent manner | inhibit the expression of TGF-β1 in a concentration-dependent manner | expression of Bax was significantly reduced in a concentration-dependent manner | promote the expression of IGF conducive to hair growth in a concentration-dependent manner | significantly inhibited the protein expression level of PARP-1 in a concentration-dependent manner | 
2 | OO [Hydrogen peroxide (H2O2), Hydrogen peroxide] |  |  |  |  |  |  | 50%
